Measurements from patent publication US20210161851A1, “COMBINATION THERAPY OF LYMPHOMA” (Deutsches Krebsforschungszentrum, priority 2019, published 2021).

Experiments:
Bcl-xL = Bcl-xL (Homo sapiens, UniProt Q07817); settings: inhibition of Bcl-xL; cited from earlier work
J16 cells = experiment: Cell death assay in non-CTCL cell line J16; format: cell-based; settings: different concentrations, 24 h
Description: (§1) ABT-199, ABT-263 and the mouse antibody against human Bcl-2 were obtained from Santa Cruz Biotechnology. DMF and monomethyl fumarate (MMF) were purchased from Sigma-Aldrich. Caspase-3 and cleaved-Caspase-3 antibodies came from Cell Signaling Technology, Ki-67 antibodies from Novacastra. Primary CD4+ T cells were isolated from heparinized whole blood and treated as indicated (Nicolay et al. (2016), Blood 128(6):805-815). Cell lines were obtained from ATCC (HH, J16) or generously donated by Drs. Gniadecki and Pless from Bispebjerg Hospital Copenhagen, Denmark and Dr. Kaltoft, Aarhus University Denmark (SeAx) or Prof. Eichmuiller from DKFZ Heidelberg, Germany (MyLa), and cultured as described (Nikolay et al, ibd.)
(§2) 1.3 Cell Death Assays, Quantitative Reverse Transcript (qRT) PCR, Western Blot were Performed as According to Standard Methods.

MyLa cells = experiment: Cell death assay in CTCL cell line MyLa; format: cell-based
Description: as §1, §2

[1] = tested on: primary healthy CD4+ T cells; experiment: Cell death assay in primary CD4+ cells of healthy donors; format: cell-based, human; settings: different concentrations
Description: (§3) Seven patients with Sezary syndrome (CTCL stage IV) diagnosed according to WHO-EORTC classification of CTCL and criteria of the international society of cutaneous lymphomas were included in the study. As controls, we investigated blood samples of healthy donors (n=7). Informed consent was obtained from all subjects before inclusion. The study was conducted according to ethical guidelines at our institution and the Helsinki Declaration and was approved by the ethics committee II of the University of Heidelberg.
as §1, §2

SeAx cells = experiment: Cell death assay in CTCL cell line SeAx; format: cell-based; settings: different concentrations, 24 h
Description: as §1, §2

HH cells = experiment: Cell death assay in CTCL cell line HH; format: cell-based; settings: different concentrations, 24 h
Description: as §1, §2

primary CD4+ CTCL cells = experiment: Cell death assay in primary CD4+ CTCL cells of Sezary patients; format: cell-based, human; settings: increasing concentrations, 24 h and 48 h
Description: as §3, §1, §2

[2] = tested on: caspase 3 cleavage in SeAx cells; experiment: Western blot of caspase 3 cleavage in SeAx cells; format: cell-based; settings: 100 or 1000 nM ABT-199, 50 μM DMF
Description: as §1, §2

[3] = tested on: Bax/Bak interaction in SeAx cells; experiment: Proximity ligation assay (PLA) of Bax/Bak in SeAx cells; format: cell-based
Description: (§4) In order to determine protein interactions a proximity ligation assay was performed with Duolink® PLA by Sigma-Aldrich as described before (Schroeder et al. (2017), Nat. Publ. Gr. October 2016:1-12). The rabbit antibody against Bak and the mouse antibody against Bax were obtained from Abcam.

SeAx xenograft tumors [4] = experiment: Orthotopic SeAx xenograft CTCL mouse model: tumor growth and survival; format: in vivo, NSG mice; settings: for tumor growth: ABT-199 100 mg/kg once oral, DMF 30 mg/kg i.p. once daily for 28 days; for overall survival: SeAx xenograft NSG mice; for animals still under follow-up (survival rate): day 30, one day after the end of the treatment phase
Description: (§5) All animal experiments were in accordance with the approved guidelines of the local Governmental Committee for Animal Experimentation (RP Karlsruhe, Germany, license G282/15). Mice were maintained at a 12 h light-dark cycle with unrestricted diet and water. Under isoflurane inhalation anesthesia (1-1.5% in O2, 0.5 L/min), 3×10^6 SeAx cells suspended in 30 μl of PBS/Matrigel (1:1, v/v) were injected intradermally (i.d.) into the right flank of 6-7-week-old female NOD SCID gamma (NSG) mice recruited from the Center for Preclinical Research, DKFZ, Heidelberg and kept on Kliba diet 3307 with n=8 mice/group. When tumors reached palpable size (mean of 0.025 cm^3) mice were randomized and treated first as indicated once by oral gavage with ABT-199 dissolved in a vehicle of […], 30% polyethylenglycol 400 and 10% ethanol at a concentration of 100 mg/kg body weight, 10 μl/g mouse or vehicle alone as indicated. One day later, intraperitoneal (i.p.) treatment with DMF once daily for 28 days was started as indicated. The compound, dissolved at 3 mg/ml in 30° C. pre-warmed PBS, was given with 10 μl/g mouse at a dose of 30 mg/kg bodyweight. For control, PBS (10 μl/g mouse) was injected. Tumor volume was measured with a caliper 2-3 times a week and calculated according to the formula: V=(length (mm)×width (mm)^2)/2. Necropsies were taken when one tumor diameter reached 1.5 cm or when mice reached stop criterion of the German Society of Laboratory Animal Sciences (GV-SOLAS), here defined as survival. For tissue staining, the liver and a quarter of the tumor was fixed in 4% PBS-buffered formaldehyde and embedded into paraffin according to routine procedures.

[5] = tested on: Bax/Bak interaction in HH cells; experiment: Proximity ligation assay (PLA) of Bax/Bak in HH cells; format: cell-based
Description: as §4

[6] = tested on: caspase 3 cleavage in HH cells; experiment: Western blot of caspase 3 cleavage in HH cells; format: cell-based; settings: 100 or 1000 nM ABT-199, 50 μM DMF
Description: as §1, §2

SeAx xenograft tumors [7] = experiment: Histology and immunohistochemistry of SeAx xenograft tumors; format: in vivo, NSG mice; settings: for Ki-67 positivity (proliferation index) / caspase 3 cleavage within the xenograft tumors: immunohistochemistry, 400×
Description: as §5
Hematoxylin and eosin staining as well as immunohistochemistry were performed on 5 μm paraffin sections as described. For immunohistochemical stainings, paraffin-embedded tissue was sectioned into 5 μm slices. Ki-67 was detected in deparaffinized tissue specimens after antigen retrieval (20 min at boiling temperature in 10 mM sodium citrate pH 6.0), block of endogenous peroxidases in 3% H2O2 in PBS for 10 min, block in 100% goat serum for 1 h at room temperature (RT) and incubation overnight at 4° C. in a 1:250 dilution of anti-Ki-67 antibodies (NCL-Ki67p, Novacastra). Slides were incubated with appropriate horse-radish peroxidase (HRP)-coupled secondary antibody (1:200) for 1 h at RT, incubated with HRP substrate solution (DAB/H2O2, Sigma, Munich/Germany). Nuclei were counterstained with hematoxylin for 1 min. Mounting was in Eukitt (R. Langenbrinck, Teningen/Germany). Sections incubated without primary antibody were included as negative controls.
Immunohistochemical assessment of the tissue slides was performed by a dermatologist (JPN) and a pathologist (TA).
For microscopy, the following Nikon objective lenses were used (Nikon, Tokio, Japan): Nikon Plan Apoλ 2×/0.1, Nikon Plan Apoλ 20×/0.75. Microscopy was performed at 22° C. throughout with cryopreserved or paraffin sections. As fluorochromes phycoerythrin (PE), fluorescein-isothiocyanate (FITC) and DAPI were used for red, green and blue stainings, respectively. The micrographs were taken with a Nikon DS-Fi2 camera using the Nikon DS-L3 software.

Bcl-2 = experiment: Western blot of Bcl-2 family protein levels upon NFκB inhibition; format: cell-based, human; settings: J16, HH and SeAx cells
Description: as §1, §2

Sequence of Bcl-xL (Q07817 whole entry, species assumed): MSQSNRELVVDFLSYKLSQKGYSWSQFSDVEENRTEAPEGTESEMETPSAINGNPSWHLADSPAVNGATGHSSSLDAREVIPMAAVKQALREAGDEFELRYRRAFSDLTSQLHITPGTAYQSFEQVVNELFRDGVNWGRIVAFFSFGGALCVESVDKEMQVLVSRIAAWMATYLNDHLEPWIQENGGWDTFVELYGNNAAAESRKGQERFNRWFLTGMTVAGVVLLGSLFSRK

Compound: CN(C)CC[C@H](CSc1ccccc1)Nc1ccc(S(=O)(=O)NC(=O)c2ccc(N3CCN(Cc4ccccc4-c4ccc(Cl)cc4)CC3)cc2)cc1[N+](=O)[O-] [ABT-737, 4-[4-[(4′-chloro[1,1′-biphenyl]-2-yl)methyl]-1-piperazinyl]-N-[[4-[[(1R)-3-(dimethylamino)-1-[(phenylthio)methyl]propyl]amino]-3-nitrophenyl]sulfonyl]-Benzamide]
- number of circulating platelets (Bcl-xL): concentration-dependent decrease in the number of circulating platelets

Compound: CC1(C)CCC(c2ccc(Cl)cc2)=C(CN2CCN(c3ccc(C(=O)NS(=O)(=O)c4ccc(N[C@H](CCN5CCOCC5)CSc5ccccc5)c(S(=O)(=O)C(F)(F)F)c4)cc3)CC2)C1 [ABT-263, (R)-4-(4-((4′-chloro-4,4-dimethyl-3,4,5,6-tetrahydro-[1,1′-biphenyl]-2-yl)methyl)piperazin-1-yl)-N-((4-((4-morpholino-1-(phenylthio)butan-2-yl)amino)-3-((trifluoromethyl)sulfonyl)phenyl)sulfonyl)benzamide]
- cell death sensitivity (J16 cells): by far attenuated cell death sensitivity
- cell death sensitivity (MyLa cells): high cell death sensitivity
- cell death effect [1]: weak effect
- cell death sensitivity (SeAx cells): high cell death sensitivity
- number of circulating platelets (Bcl-xL): concentration-dependent decrease in the number of circulating platelets
- cell death response (HH cells): barely any response
- specific cell death (primary CD4+ CTCL cells): dose-dependent specific CD4+ T cell death after 24 h and 48 h with significantly higher rates in Sezary patients' cells than in those from healthy donors

Compound: CC1(C)CCC(CN2CCN(c3ccc(C(=O)NS(=O)(=O)c4ccc(NCC5CCOCC5)c([N+](=O)[O-])c4)c(Oc4cnc5[nH]ccc5c4)c3)CC2)=C(c2ccc(Cl)cc2)C1 [ABT-199, 4-[4-[[2-(4-chlorophenyl)-4,4-dimethyl-1-cyclohexen-1-yl]methyl]-1-piperazinyl]-N-[[3-nitro-4-[[(tetrahydro-2H-pyran-4-yl)methyl]amino]phenyl]sulfonyl]-2-(1H-pyrrolo[2,3-b]pyridin-5-yloxy)-Benzamide]
- cell death sensitivity (J16 cells): by far attenuated cell death sensitivity
- caspase 3 cleavage [2]: dose-dependent caspase 3 cleavage
- cell death sensitivity (MyLa cells): high cell death sensitivity
- green fluorescence (Bax/Bak interaction, PLA) [3]: significant increase in green fluorescence
- tumor growth (SeAx xenograft tumors [4]): weak, but not significant decrease in tumor growth
- overall survival (SeAx xenograft tumors [4]): no advantage with respect to survival
- animals still under follow-up (survival rate) (SeAx xenograft tumors [4]): 0%
- animals dropped out of the group (SeAx xenograft tumors [4]; within the first 10 days after monotreatment, ABT-199 100 mg/kg once by oral gavage, n=8): 3/8
- cell death effect [1]: weak effect
- Bax/Bak interaction (PLA) [5]: had no effect
- caspase 3 cleavage [6]: had no effect
- Ki-67 positivity (proliferation index) (SeAx xenograft tumors [7]): slightly reduced positivity for Ki-67
- caspase 3 cleavage within the xenograft tumors (SeAx xenograft tumors [7]): slightly increased caspase 3 cleavage
- cell death sensitivity (SeAx cells): high cell death sensitivity
- cell death response (HH cells): barely any response
- specific cell death (primary CD4+ CTCL cells): dose-dependent specific CD4+ T cell death after 24 h and 48 h with significantly higher rates in Sezary patients' cells than in those from healthy donors

Compound: COC(=O)/C=C/C(=O)OC [DMF, Dimethyl (E)-butenedioate]
- tumor growth (SeAx xenograft tumors [4]): weak, but not significant decrease in tumor growth
- overall survival (SeAx xenograft tumors [4]): overall survival benefit
- animals still under follow-up (survival rate) (SeAx xenograft tumors [4]): 13%
- Bax/Bak interaction (PLA) [5]: had no effect
- caspase 3 cleavage [6]: could induce significant caspase 3 cleavage
- protein levels of Bcl-2 or other anti-apoptotic Bcl-2 family members like Mcl-1 (Bcl-2): no influence
- mitotic activity (mitosis figures in H&E specimens) (SeAx xenograft tumors [7]; 200× magnification): significant decrease in mitotic activity
- Ki-67 positivity (proliferation index) (SeAx xenograft tumors [7]): slightly reduced positivity for Ki-67
- caspase 3 cleavage within the xenograft tumors (SeAx xenograft tumors [7]): slightly increased caspase 3 cleavage
